# Laboratory results as given in paper PMC4745082, “A Novel PET Imaging Probe for the Detection and Monitoring of Translocator Protein 18 kDa Expression in Pathological Disorders” (Scientific Reports, 2016).
# Legend:
# [1] = format: in vitro ADME; settings: 2 h
# Method: The in vitro stability of [^18F]CB251 was assayed by monitoring both the radio-TLC and the radio-HPLC profiles to determine its radiochemical purity. To assess the in vitro serum stability, 100 μL of [^18F]CB251 in 10% EtOH/saline was incubated with 0.5 mL of human serum from a healthy volunteer for 2 h at 37 °C and the solution was analysed at 0, 10, 30, 60 and 120 min by a radio-TLC scanner using MeOH-CH2Cl2 (5:95) as the developing solvent. Separately, 100 μL of [^18F]CB251 in 10% EtOH/saline was also incubated with 0.9 mL of human serum from a healthy volunteer for 2 h at 37 °C. Aliquots (200 μL) were taken from the sample at time points of 0, 30, 60 and 120 min and mixed with absolute acetonitrile (200 μL). The mixture was centrifuged (3500 rpm, 5 min) to precipitate out serum proteins. The resulting supernatant including the authentic CB251 (1.0 mg/2.0 mL of CH3CN, 20 μL) was filtered through a 0.45 μm GH Polypro (GHP) membrane Disc filter before HPLC analysis to determine the fraction of intact radiotracer. Samples were analysed by HPLC (Waters, Xterra RP-18, 5 μm, 4.6 × 250 mm; eluant: 60% CH3CN/H2O; flow rate: 1 mL/min; guard column 10 × 10 mm).
# [2] = Log D determination (n-octanol / sodium phosphate buffer pH 7.4); format: physicochemical; settings: n-octanol / sodium phosphate buffer 0.15 M pH 7.4, measured four times
# Method: After vortexing for 1 min, each tube was then stored for 3 min at room temperature and the phases were separated. Samples of each phase (100 μL) were counted for radioactivity. Log D is expressed as the logarithm of the ratio of the counts from n-octanol versus that of the sodium phosphate buffer.
# [3] = Ex vivo tissue distribution in normal ICR mice; settings: for tissue radioactivity, Adrenal / tissue radioactivity, Blood / tissue radioactivity, Brain / tissue radioactivity, Femur / tissue radioactivity, Heart / tissue radioactivity, Kidney / tissue radioactivity, L. Intestine / tissue radioactivity, Liver / tissue radioactivity, Lung / tissue radioactivity, Muscle / tissue radioactivity, S. Intestine / tissue radioactivity, Spleen / tissue radioactivity, Stomach: normal ICR mice, tail-vein injection
# Method: Purified [^18F]CB251 was reconstituted in a 10% ethanol-saline solution. Animals were killed at various times after tail-vein injection of [^18F]CB251 (0.74 MBq/0.2 mL per mouse) and the radioactivity concentrations were measured in various tissues upon dissection. […] The radioactivity concentration in the femur remained low for 120 min (1.19 ± 0.50%ID/g at 5 min post injection; 1.49 ± 0.80%ID/g at 120 min post injection).
# Tissue distribution studies were performed in normal male ICR mice (7 weeks, 25-30 g) with tail-vein administration of [^18F]CB251 (0.74 MBq/mouse) dissolved in 10% ethanol in saline to a final volume of 200 μL. The animals (n = 5 for each time point) were euthanised with diethyl ether at 5, 15, 30, 60 and 120 min post injection. After the mice were euthanised, blood and other organs such as the heart, liver, lung, stomach, spleen, kidney, intestine, muscle, brain, adrenal and femur were removed, weighed and counted for radioactivity in a NaI (Tl) well counter (Wizard^TM3”, PerkinElmer). The injected dose was calculated from standards prepared from the injection solution. The accumulated radioactivity of all tissues is presented as the percentage of the injected dose per gram of tissue (%ID/g). All animal studies were performed with the approval of the Institutional Animal Care and Use Committee of the Seoul National University Bundang Hospital (SNUBH) and the methods were carried out in accordance with the approved guidelines.
structure (smiles),measurement,setting,value
"CCCN(CCC)C(=O)Cc1c(-c2ccc(OCC[18F])cc2)nc2c(Cl)cc(Cl)cn12 [[^18F]CB251, 2-(2-(4-(2-[^18F]fluoroethoxy)phenyl)-6,8-dichloroimidazo[1,2-a]pyridin-3-yl)-N,N-dipropylacetamide]",radioactive parent remaining in human serum,[1],greater than 99%
same,logD,[2],3 ± 0.03
same,uptake of radioactivity in the femur,"[3]; healthy mice, summary bound in text, indicates negligible defluorination",< 2 %ID/g
same,uptake in TSPO-enriched tissues,"[3]; male, ICR, mouse, in vivo",> 22 %ID/g
same,"tissue radioactivity, Adrenal",[3]; 5 min post injection,19.06 ± 5.48 %ID/g
same,"tissue radioactivity, Adrenal",[3]; 15 min post injection,22.60 ± 5.00 %ID/g
same,"tissue radioactivity, Adrenal",[3]; 30 min post injection,19.73 ± 3.42 %ID/g
same,"tissue radioactivity, Adrenal",[3]; 60 min post injection,12.69 ± 5.62 %ID/g
same,"tissue radioactivity, Adrenal",[3]; 120 min post injection,14.78 ± 8.26 %ID/g
same,"tissue radioactivity, Blood",[3]; 5 min post injection,4.39 ± 0.78 %ID/g
same,"tissue radioactivity, Blood",[3]; 15 min post injection,2.17 ± 0.40 %ID/g
same,"tissue radioactivity, Blood",[3]; 30 min post injection,1.24 ± 0.26 %ID/g
same,"tissue radioactivity, Blood",[3]; 60 min post injection,0.60 ± 0.12 %ID/g
same,"tissue radioactivity, Blood",[3]; 120 min post injection,0.64 ± 0.26 %ID/g
same,"tissue radioactivity, Brain",[3]; 5 min post injection,2.89 ± 0.23 %ID/g
same,"tissue radioactivity, Brain",[3]; 15 min post injection,1.94 ± 0.24 %ID/g
same,"tissue radioactivity, Brain",[3]; 30 min post injection,1.39 ± 0.13 %ID/g
same,"tissue radioactivity, Brain",[3]; 60 min post injection,0.63 ± 0.24 %ID/g
same,"tissue radioactivity, Brain",[3]; 120 min post injection,0.53 ± 0.23 %ID/g
same,"tissue radioactivity, Femur",[3]; 5 min post injection,1.19 ± 0.50 %ID/g
same,"tissue radioactivity, Femur",[3]; 15 min post injection,1.25 ± 0.41 %ID/g
same,"tissue radioactivity, Femur",[3]; 30 min post injection,1.94 ± 0.36 %ID/g
same,"tissue radioactivity, Femur",[3]; 60 min post injection,1.41 ± 0.64 %ID/g
same,"tissue radioactivity, Femur",[3]; 120 min post injection,1.49 ± 0.80 %ID/g
same,"tissue radioactivity, Heart",[3]; 5 min post injection,29.49 ± 2.36 %ID/g
same,"tissue radioactivity, Heart",[3]; 15 min post injection,24.16 ± 4.67 %ID/g
same,"tissue radioactivity, Heart",[3]; 30 min post injection,23.11 ± 5.16 %ID/g
same,"tissue radioactivity, Heart",[3]; 60 min post injection,10.47 ± 4.50 %ID/g
same,"tissue radioactivity, Heart",[3]; 120 min post injection,8.62 ± 4.57 %ID/g
same,"tissue radioactivity, Kidney",[3]; 5 min post injection,22.17 ± 1.63 %ID/g
same,"tissue radioactivity, Kidney",[3]; 15 min post injection,24.55 ± 5.11 %ID/g
same,"tissue radioactivity, Kidney",[3]; 30 min post injection,23.19 ± 5.68 %ID/g
same,"tissue radioactivity, Kidney",[3]; 60 min post injection,14.55 ± 5.74 %ID/g
same,"tissue radioactivity, Kidney",[3]; 120 min post injection,15.60 ± 8.55 %ID/g
same,"tissue radioactivity, L. Intestine",[3]; 5 min post injection,1.54 ± 0.19 %ID/g
same,"tissue radioactivity, L. Intestine",[3]; 15 min post injection,1.53 ± 0.13 %ID/g
same,"tissue radioactivity, L. Intestine",[3]; 30 min post injection,1.69 ± 0.21 %ID/g
same,"tissue radioactivity, L. Intestine",[3]; 60 min post injection,1.37 ± 0.56 %ID/g
same,"tissue radioactivity, L. Intestine",[3]; 120 min post injection,2.09 ± 1.07 %ID/g
same,"tissue radioactivity, Liver",[3]; 5 min post injection,4.69 ± 0.66 %ID/g
same,"tissue radioactivity, Liver",[3]; 15 min post injection,6.67 ± 1.10 %ID/g
same,"tissue radioactivity, Liver",[3]; 30 min post injection,8.19 ± 1.59 %ID/g
same,"tissue radioactivity, Liver",[3]; 60 min post injection,6.80 ± 2.64 %ID/g
same,"tissue radioactivity, Liver",[3]; 120 min post injection,7.17 ± 2.99 %ID/g
same,"tissue radioactivity, Lung",[3]; 5 min post injection,106.4 ± 8.61 %ID/g
same,"tissue radioactivity, Lung",[3]; 15 min post injection,65.70 ± 11.3 %ID/g
same,"tissue radioactivity, Lung",[3]; 30 min post injection,38.36 ± 3.97 %ID/g
same,"tissue radioactivity, Lung",[3]; 60 min post injection,17.69 ± 5.77 %ID/g
same,"tissue radioactivity, Lung",[3]; 120 min post injection,13.22 ± 6.10 %ID/g
same,"tissue radioactivity, Muscle",[3]; 5 min post injection,0.83 ± 0.34 %ID/g
same,"tissue radioactivity, Muscle",[3]; 15 min post injection,1.19 ± 0.22 %ID/g
same,"tissue radioactivity, Muscle",[3]; 30 min post injection,2.01 ± 0.34 %ID/g
same,"tissue radioactivity, Muscle",[3]; 60 min post injection,1.52 ± 0.59 %ID/g
same,"tissue radioactivity, Muscle",[3]; 120 min post injection,1.45 ± 0.65 %ID/g
same,"tissue radioactivity, S. Intestine",[3]; 5 min post injection,3.30 ± 0.73 %ID/g
same,"tissue radioactivity, S. Intestine",[3]; 15 min post injection,4.54 ± 0.60 %ID/g
same,"tissue radioactivity, S. Intestine",[3]; 30 min post injection,4.43 ± 0.90 %ID/g
same,"tissue radioactivity, S. Intestine",[3]; 60 min post injection,3.43 ± 1.35 %ID/g
same,"tissue radioactivity, S. Intestine",[3]; 120 min post injection,3.78 ± 1.96 %ID/g
same,"tissue radioactivity, Spleen",[3]; 5 min post injection,17.63 ± 3.38 %ID/g
same,"tissue radioactivity, Spleen",[3]; 15 min post injection,25.11 ± 2.16 %ID/g
same,"tissue radioactivity, Spleen",[3]; 30 min post injection,23.27 ± 3.52 %ID/g
same,"tissue radioactivity, Spleen",[3]; 60 min post injection,14.24 ± 4.47 %ID/g
same,"tissue radioactivity, Spleen",[3]; 120 min post injection,13.82 ± 5.17 %ID/g
same,"tissue radioactivity, Stomach",[3]; 5 min post injection,1.86 ± 0.48 %ID/g
same,"tissue radioactivity, Stomach",[3]; 15 min post injection,2.13 ± 0.77 %ID/g
same,"tissue radioactivity, Stomach",[3]; 30 min post injection,1.84 ± 0.49 %ID/g
same,"tissue radioactivity, Stomach",[3]; 60 min post injection,0.98 ± 0.41 %ID/g
same,"tissue radioactivity, Stomach",[3]; 120 min post injection,1.97 ± 0.95 %ID/g
